Test results taken from paper PMC10961359, “Targeting hexokinase 2 for oral cancer therapy: structure-based design and validation of lead compounds” (Frontiers in Pharmacology, 2024).

How the values were obtained:
Type in all cases: cell-based
[1] = test system: Cal27 cells; assay: 2-NBDG glucose uptake assay (flow cytometry), Cal27; settings: Cal27, 10 μM and 30 μM, 72 h, vs DMSO control
Description: (§1) FaDu and Cal27 cells were treated with test compounds (0.2 million cells per treatment) and were incubated for 1 h with 100 μM of 2-NBDG (Invitrogen, N13195), in glucose free medium, washed with ice-cold PBS, and re-suspended in 500 μL of PBS and maintained on ice to perform flow cytometric analyses within 30 min. The mean fluorescent intensity (MFI) readout reflects the amount of fluorescent glucose analog taken up by the cells, providing insight into their glucose uptake capacity. The percent (%) cell population positive for glucose uptake (shown with a right shift of the histogram peaks) were also plotted for both the cell lines. For MMP analysis, cells were incubated with 200 nM of TMRE (Invitrogen, T669) for 30 min. For each measurement, data was collected for 10,000 events using a BD FACS Aria III (Becton Dickinson, San Jose, CA) instrument.
(§2) 2-[N-(7-Nitrobenz-2-oxa-1,3-diaxol-4-yl) amino]-2-deoxyglucose (2-NBDG) uptake into cells happens via glucose transporters and post uptake 2-NBDG gets phosphorylated by hexokinases. Since cancer cells represent higher glycolytic activity, the inhibition of HK2 activity in cancer cells is actively reflected in the inhibition of 2-NBDG uptake ([Hung et al., 2022]; [Li et al., 2022]). […] In this assay, the MFI of intracellular 2-NBDG serves as a quantitative measure of cellular glucose uptake. […] This finding is further supported by the increased % population of 2-NBDG positive cells in Cal27 cells compared to FaDu cells (Figure 3).

[2] = test system: FaDu cells; assay: Cell cycle analysis (propidium iodide, flow cytometry), FaDu; settings: 10 and 30 μM, 72 h
Description: FaDu and Cal27 cells were treated with the test compounds (0.5 million cells per treatment) for 72 h, and harvested for cell cycle analysis (Cat# BD340242) and apoptosis analysis (Cat# BD556547) by flow cytometry according to manufacturer’s instructions.
To determine the effect of HK2 inhibition in the progression of the cell cycle, flow cytometric analysis of compound-treated FaDu and Cal27 cells was carried out 72 h post-treatment. Cell cycle analysis is carried out to quantify the DNA content and estimate the percentages of the cell population in different cell cycle phases via propidium iodide staining. […] To determine the apoptosis-inducing activity of HK2 inhibitors, 10 and 30 μM of compounds H2 and H10 treated FaDu and Cal27 cells were stained with annexin V conjugated with FITC, followed by propidium iodide staining.

[3] = test system: mitochondrial HK2 (mitoHK2) in Cal27 cells; assay: Western blot fractionation, mitoHK2 dissociation; settings: 4 h
Description: Cal27 cells were treated with the test compound (1 million cells per treatment for 4 h) and were processed for mitochondria isolation using a homogenization buffer containing 210 mM mannitol, 70 mM sucrose, 5 mM tris-HCl, (pH 7.5) and 1 mM EDTA (pH 7.5). The cell pellet was sheared with a total of 90 strokes in the homogenization buffer in a span of 1 h on ice. The lysate was centrifuged at 800 rpm for 10 min and the mitochondria enriched supernatant was isolated. The pellet was again lysed using RIPA lysis buffer to obtain the cytosolic fraction. The mitochondrial fractions and the cytosolic fractions were loaded on a 10% SDS-PAGE gel. The antibodies used were anti-HK2 antibody (CST, Cat#2867), anti β-actin antibody (CST, Cat#4970) and mitochondrial marker anti-VDAC antibody (CST, Cat# 4661). The whole cell lysates were obtained using RIPA lysis buffer alone. The quantifications were performed using ImageJ software.
(§3) Mitochondria utilize the oxidizable substrates to produce a membrane potential as the proton gradient ([Sivandzade et al., 2019]). […] To determine the change in MMP post-treatment with HK2 inhibitors, the cells were treated with 200 nM of TMRE (tetramethyl rhodamine ethyl ester, a cell-permeant cationic dye readily sequestered by active mitochondria) and flow cytometric analyses of TMRE uptake was carried out. […]

[4] = test system: LC3B in Cal27 cells; assay: Immunofluorescence LC3B / MitoTracker Red colocalization (mitophagy); settings: Cal27, 4 h
Description: Cal27 cells were treated with respective compounds for 4h, and washed with PBS and fixed with 100% methanol. The non-specific antibody binding was blocked by incubating with 5% goat serum in 0.3% Triton X-100 for 1 h. The diluted primary antibody (LC3B mAb, CST Cat# 3868) and MitoTracker Red (CST, Cat# 9082) were applied and samples were incubated overnight at 4°C followed by addition of fluorescently labelled secondary antibody for 2 h at room temperature and visualized using Leica DMi8 laser scanning confocal microscope using the Leica LAS X software. To analyze the extent of mitophagy in the captured images, the colocalization area of green (LC3B) and red (Mito-Red) portions were quantified using the LAS X software. The LC3B MFI was also quantified and represented in gray values.
as §3, with “2019]). Loss in mitochondrial membrane potential (MMP) is a direct measurement of mitochondrial stress and may cause the release of apoptotic factors leading to cell death ([Zhang et al., 2017]).” for “2019]).”

[5] = test system: FaDu cells; assay: 2-NBDG glucose uptake assay (flow cytometry), FaDu; settings: 10 μM and 30 μM, 72 h, vs DMSO control
Description: as §1, §2

`COc1ccc(CNC(=O)c2nc3ccccc3s2)cc1O` [Compound 14, N-(3-hydroxy-4methoxybenzyl)benzo[d]thiazole-2-carboxamide] was tested, and the “2-NBDG MFI” value [1] was “significant reduction”, the subG1 phase population [2] was “increase in subG1 phase population” and the “mitochondrial HK2 (mitoHK2) dissociation” value ([3]; Cal27, 30 μM) was “induced the dissociation of mitoHK2”. The “expression of total HK2 protein” value ([3]; Cal27 whole cell lysate, 30 μM) was “without altering the expression of total HK2 protein”, the “LC3B expression and co-localization with MitoTracker Red (mitophagy)” value [4] was “increase in LC3B expression” and the “2-NBDG MFI” value [5] was “significant reduction”.
